The text below walks through data of BindingDB's records for patent US20240400579 (Genentech, 2024).

pKi: −log10 of the molar value.

T1 sequence (Q15125 whole entry): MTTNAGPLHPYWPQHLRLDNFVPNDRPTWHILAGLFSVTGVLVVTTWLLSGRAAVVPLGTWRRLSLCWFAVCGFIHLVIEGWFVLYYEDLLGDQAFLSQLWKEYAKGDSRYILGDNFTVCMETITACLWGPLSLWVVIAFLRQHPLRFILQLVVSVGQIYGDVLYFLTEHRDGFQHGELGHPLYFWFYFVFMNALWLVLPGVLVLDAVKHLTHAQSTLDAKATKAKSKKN

The first test has as its target T1, 3-beta-hydroxysteroid-Delta(8),Delta(7)-isomerase (Homo sapiens, UniProt Q15125). In words: Determination of Binding Affinity to EBP-7-Dehydrocholesterol Reductase. The procedure: Compounds were prepared in a 96-well U bottom plate using an Echo550 machine and 10 mM compound DMSO stock solution, followed by an 8-dose 5-fold serial dilutions protocol with final testing compound concentration ranging from 0.06 to 5000 nM, with DMSO back fill to 100 nL/well and n=2. […] The UniFilter-96 GF/B plates were pre-treated by adding 50 μl/well of 0.3% (v/v) PEI to UniFilter-96 GF/B plates. The plates were sealed and incubated at 4° C. for 3 hrs. Then, the plates were washed with ice-cold assay buffer 3 times. The radioligand binding assay was prepared by adding assay buffer diluted hEBP-DHCR7 membrane at 66.7 μg/ml x 150 μl/well into the 96-well compound plate to reach 10 μg membrane per well. Then, the assay buffer diluted [3H]-Compound 118A* was added at 25 nM×50 μl/well. Following this, the plate was centrifuged at 1000 rpm for 30 secs. The plate was then sealed and agitated at 600 rpm at 22° C. for 5 min, and then incubated at 22° C. for 3 hrs. The incubation was stopped by transferring the binding solution to the pre-treated UniFilter-96 GF/B plate, vacuum filtrated, and then washed four times with ice-cold assay buffer. Following this, the plates were dried at 37° C. for 45 min. The plates were then sealed at the bottom. 40 μl/well of scintillation cocktail was added to the plates. A MicroBeta2 microplate counter was then used to read the plate and analyze the data. For reference and test compounds, the results are expressed as % Inhibition, using the normalization equation: N=100-100×(U−C2)/(C1−C2), where U is the unknown value, C1 is the average of high controls, and C2 is the average value of low controls. The IC50 was determined by fitting percentage of inhibition as a function of compound concentrations with Hill equation using XLfit.
By pKi is commonly meant the Ki on a negative log10 scale, so that one unit is a factor of ten. Higher therefore signals a low Ki. Consider `O=S1(=O)CC2(CCN(CCCc3ccc(C(F)(F)F)cc3)C2)C1` [US20240400579, Example 113], for which the pKi is 8.02.

In turn, `C[C@H](Cc1ccc(C2CCCCO2)c(Cl)c1)CN1CCC2(C1)CS(=O)(=O)C2` (stereo partly specified) [US20240400579, Example 124A] had a pKi of 7.73.

As to `C[C@@H](Cc1ccc([C@@H]2CCCCO2)c(Cl)c1)CN1CCC2(C1)CS(=O)(=O)C2` [US20240400579, Example 124B], the pKi is 7.60.

Molecule `CC(C)(Cc1ccc(C(F)(F)F)cc1)CN1CCC2(C1)CS(=O)(=O)C2` [US20240400579, Example 125] showed a pKi of 8.40.

Take `O=S1(=O)CC2(CCN(CCOc3cnc(C(F)(F)F)c(Cl)c3)CC2)C1` [US20240400579, Example 242]: the pKi is 7.88.

Another test deals with T1, 3-beta-hydroxysteroid-Delta(8),Delta(7)-isomerase. In words: Determination of Binding Affinity to EBP. The procedure:
This binding solution was centrifuged at 400 g for 5 minutes to collect the bead/membrane mixture. After re-suspending the pellet in binding buffer at the same calculated volume with 0.01% BSA (Sigma A1933), the bead/membrane mixture was added in 384-well low-binding surface plate (PerkinElmer Cat #6057480) at 25 i/well. Radioligand at different concentrations with and without the non-radio-labeled same ligand 5 uM (for nonspecific and total signal, respectively) was added to bring final volume to 50 i/well with DMSO concentration at 0.1%. At equilibrium (3 hours after ligand addition), radiometric signal CPM was counted by using a Microbeta2 microplate counter (Perkinelmer).
On to `CC(C)(Cc1ccc(C(F)(F)F)cc1)CN1CCC2(C1)CS(=O)(=O)C2` [US20240400579, Example 125], for which the pKi was 7.25.
